From article PMC5448077, “Development of an orally available inhibitor of CLK1 for skipping a mutated dystrophin exon in Duchenne muscular dystrophy” (Scientific Reports, 2017)

Tests used:
Assay in all cases: biochemical
[1] = target: MET(Y1235D) (Homo sapiens, UniProt P08581, Y1235D)
Procedure, shortened: (§1)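 Human kinases phosphorylating kinase-specific synthetic peptides, assayed by mobility shift (MSA) or IMAP fluorescence polarization, in 20 mM HEPES pH 7.5, 0.01% Triton X-100, 2 mM DTT with substrate/ATP-metal. Reactions ran 1 or 5 h at room temperature; activity = P/(P + S) from product and substrate peak heights.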

[2] = target: WNK2 (Homo sapiens, UniProt Q9Y3S1)
Procedure, shortened: as §1

[3] = target: ROCK2 (Homo sapiens, UniProt O75116)
Procedure, shortened: as §1

[4] = target: SRC (Homo sapiens, UniProt P12931)
Procedure, shortened: as §1

[5] = target: T1, IKKε (Homo sapiens, UniProt Q14164)
T1 construct: gene IKBKE
Procedure, shortened: as §1

[6] = target: KIT (Homo sapiens, UniProt P10721)
Procedure, shortened: as §1

[7] = target: T2, RSK4 (Homo sapiens, UniProt Q9UK32)
T2 construct: gene RPS6KA6
Procedure, shortened: as §1

[8] = target: T3, PKACβ (Homo sapiens, UniProt P22694)
T3 construct: gene PRKACB
Procedure, shortened: as §1

[9] = target: EGFR(L858R) (Homo sapiens, UniProt P00533, L858R)
Procedure, shortened: as §1

[10] = target: T4, PKCβ2 (Homo sapiens, UniProt P05771)
T4 construct: gene PRKCB; isoform beta2
Procedure, shortened: as §1

[11] = target: NEK6 (Homo sapiens, UniProt Q9HC98)
Procedure, shortened: as §1

[12] = target: SYK (Homo sapiens, UniProt P43405)
Procedure, shortened: as §1

[13] = target: T5, PKD1 (Homo sapiens, UniProt Q15139)
T5 construct: gene PRKD1
Procedure, shortened: as §1

[14] = target: BRSK1 (Homo sapiens, UniProt Q8TDC3)
Procedure, shortened: as §1

[15] = target: T6, ROS (Homo sapiens, UniProt P08922)
T6 construct: gene ROS1
Procedure, shortened: as §1

[16] = target: T7, CRIK (Homo sapiens, UniProt O14578)
T7 construct: gene CIT
Procedure, shortened: as §1

[17] = target: DAPK1 (Homo sapiens, UniProt P53355)
Procedure, shortened: as §1

[18] = target: DDR2 (Homo sapiens, UniProt Q16832)
Procedure, shortened: as §1

[19] = target: T8, RON (Homo sapiens, UniProt Q04912)
T8 construct: gene MST1R
Procedure, shortened: as §1

[20] = target: T9, PKCζ (Homo sapiens, UniProt Q05513)
T9 construct: gene PRKCZ
Procedure, shortened: as §1

[21] = target: CDK3/CycE1 (Homo sapiens, UniProt Q00526)
Procedure, shortened: as §1

[22] = target: T10, PKCα (Homo sapiens, UniProt P17252)
T10 construct: gene PRKCA
Procedure, shortened: as §1

[23] = target: T11, CK1α (Homo sapiens, UniProt P48729)
T11 construct: gene CSNK1A1
Procedure, shortened: as §1

[24] = target: PHKG2 (Homo sapiens, UniProt P15735)
Procedure, shortened: as §1

[25] = target: T12, CaMK2δ (Homo sapiens, UniProt Q13557)
T12 construct: gene CAMK2D
Procedure, shortened: as §1

[26] = target: DDR1 (Homo sapiens, UniProt Q08345)
Procedure, shortened: as §1

[27] = target: LCK (Homo sapiens, UniProt P06239)
Procedure, shortened: as §1

[28] = target: PLK1 (Homo sapiens, UniProt P53350)
Procedure, shortened: as §1

[29] = target: T13, PDHK2 (Homo sapiens, UniProt Q15119)
T13 construct: gene PDK2
Procedure, shortened: as §1

[30] = target: PLK3 (Homo sapiens, UniProt Q9H4B4)
Procedure, shortened: as §1

[31] = target: PAK6 (Homo sapiens, UniProt Q9NQU5)
Procedure, shortened: as §1

T5 sequence (Q15139 whole entry): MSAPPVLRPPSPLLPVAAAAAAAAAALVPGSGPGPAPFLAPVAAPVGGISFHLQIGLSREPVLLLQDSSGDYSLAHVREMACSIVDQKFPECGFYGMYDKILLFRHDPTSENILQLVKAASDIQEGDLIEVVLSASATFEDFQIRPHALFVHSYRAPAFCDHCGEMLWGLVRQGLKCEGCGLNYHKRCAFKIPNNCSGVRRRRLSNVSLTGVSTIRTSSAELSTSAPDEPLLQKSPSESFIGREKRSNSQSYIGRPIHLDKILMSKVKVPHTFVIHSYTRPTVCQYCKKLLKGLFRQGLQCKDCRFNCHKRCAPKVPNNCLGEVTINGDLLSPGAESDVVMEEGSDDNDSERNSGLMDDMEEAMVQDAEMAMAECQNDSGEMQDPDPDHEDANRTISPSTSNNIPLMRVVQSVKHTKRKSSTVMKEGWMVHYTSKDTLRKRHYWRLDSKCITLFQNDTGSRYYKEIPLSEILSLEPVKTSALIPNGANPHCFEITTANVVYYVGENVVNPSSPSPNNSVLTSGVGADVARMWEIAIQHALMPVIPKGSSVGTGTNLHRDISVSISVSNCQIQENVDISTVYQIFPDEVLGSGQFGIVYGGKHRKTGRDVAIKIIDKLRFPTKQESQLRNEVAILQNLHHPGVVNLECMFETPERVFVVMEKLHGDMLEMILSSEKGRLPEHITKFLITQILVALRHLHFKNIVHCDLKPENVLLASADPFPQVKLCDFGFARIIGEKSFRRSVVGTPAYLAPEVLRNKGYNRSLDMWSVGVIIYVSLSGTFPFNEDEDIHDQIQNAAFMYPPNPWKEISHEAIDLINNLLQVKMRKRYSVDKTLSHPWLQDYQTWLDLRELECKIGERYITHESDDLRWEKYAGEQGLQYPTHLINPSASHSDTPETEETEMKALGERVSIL
T2 sequence (Q9UK32 whole entry): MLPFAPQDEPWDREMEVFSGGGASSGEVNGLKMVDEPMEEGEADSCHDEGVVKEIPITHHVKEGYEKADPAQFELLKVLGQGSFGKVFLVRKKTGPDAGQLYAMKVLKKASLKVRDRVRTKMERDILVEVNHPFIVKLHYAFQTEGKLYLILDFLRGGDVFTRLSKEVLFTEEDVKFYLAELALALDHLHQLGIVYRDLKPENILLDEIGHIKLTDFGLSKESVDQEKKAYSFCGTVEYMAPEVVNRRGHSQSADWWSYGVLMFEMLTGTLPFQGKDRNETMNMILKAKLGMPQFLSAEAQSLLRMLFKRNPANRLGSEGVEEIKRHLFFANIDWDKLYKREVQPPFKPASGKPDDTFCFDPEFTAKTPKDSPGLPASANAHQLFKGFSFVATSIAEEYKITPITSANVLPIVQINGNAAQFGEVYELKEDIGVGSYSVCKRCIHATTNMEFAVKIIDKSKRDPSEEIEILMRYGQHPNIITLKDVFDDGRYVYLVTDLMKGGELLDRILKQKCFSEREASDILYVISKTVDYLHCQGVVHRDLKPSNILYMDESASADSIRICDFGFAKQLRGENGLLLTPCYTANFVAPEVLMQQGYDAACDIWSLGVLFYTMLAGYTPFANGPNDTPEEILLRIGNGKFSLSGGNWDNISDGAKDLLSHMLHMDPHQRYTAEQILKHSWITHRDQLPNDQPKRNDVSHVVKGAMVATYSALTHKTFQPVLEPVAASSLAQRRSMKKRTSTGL
Sequence of MET(Y1235D) (P08581 whole entry Y1235D): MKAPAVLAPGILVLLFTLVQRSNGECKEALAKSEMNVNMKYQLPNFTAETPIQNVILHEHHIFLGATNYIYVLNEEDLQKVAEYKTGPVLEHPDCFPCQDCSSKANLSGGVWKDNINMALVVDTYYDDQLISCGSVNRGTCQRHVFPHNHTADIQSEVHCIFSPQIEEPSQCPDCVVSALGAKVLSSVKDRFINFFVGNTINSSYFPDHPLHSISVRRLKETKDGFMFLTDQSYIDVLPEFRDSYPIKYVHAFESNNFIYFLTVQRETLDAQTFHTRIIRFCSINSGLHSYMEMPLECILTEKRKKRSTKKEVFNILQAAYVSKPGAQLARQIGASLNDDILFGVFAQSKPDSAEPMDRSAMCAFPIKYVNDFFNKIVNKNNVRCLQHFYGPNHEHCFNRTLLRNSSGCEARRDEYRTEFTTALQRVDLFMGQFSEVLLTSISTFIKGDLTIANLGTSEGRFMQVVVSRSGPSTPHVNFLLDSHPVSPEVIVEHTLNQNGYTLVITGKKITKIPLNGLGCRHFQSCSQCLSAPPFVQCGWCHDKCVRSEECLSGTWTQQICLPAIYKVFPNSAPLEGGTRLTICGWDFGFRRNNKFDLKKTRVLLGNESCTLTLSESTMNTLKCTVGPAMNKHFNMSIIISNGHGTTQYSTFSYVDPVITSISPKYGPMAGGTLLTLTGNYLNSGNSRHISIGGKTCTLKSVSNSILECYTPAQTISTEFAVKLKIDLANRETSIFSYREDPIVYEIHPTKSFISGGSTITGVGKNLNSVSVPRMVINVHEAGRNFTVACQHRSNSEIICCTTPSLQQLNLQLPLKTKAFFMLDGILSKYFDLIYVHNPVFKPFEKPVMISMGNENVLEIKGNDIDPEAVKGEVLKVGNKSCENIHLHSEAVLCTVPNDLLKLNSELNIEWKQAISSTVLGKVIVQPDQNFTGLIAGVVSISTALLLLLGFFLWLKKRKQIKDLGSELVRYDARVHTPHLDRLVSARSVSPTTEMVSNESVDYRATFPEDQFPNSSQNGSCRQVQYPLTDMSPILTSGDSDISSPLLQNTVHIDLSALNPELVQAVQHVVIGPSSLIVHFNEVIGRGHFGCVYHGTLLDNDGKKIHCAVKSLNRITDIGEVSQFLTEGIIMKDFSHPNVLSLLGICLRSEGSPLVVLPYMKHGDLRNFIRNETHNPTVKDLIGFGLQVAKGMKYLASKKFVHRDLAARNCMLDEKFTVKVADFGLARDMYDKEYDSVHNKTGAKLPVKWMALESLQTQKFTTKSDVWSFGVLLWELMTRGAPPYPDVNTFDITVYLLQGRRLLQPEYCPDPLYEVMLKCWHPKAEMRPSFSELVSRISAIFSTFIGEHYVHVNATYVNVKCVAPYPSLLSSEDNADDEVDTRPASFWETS
Sequence of SRC (P12931 whole entry): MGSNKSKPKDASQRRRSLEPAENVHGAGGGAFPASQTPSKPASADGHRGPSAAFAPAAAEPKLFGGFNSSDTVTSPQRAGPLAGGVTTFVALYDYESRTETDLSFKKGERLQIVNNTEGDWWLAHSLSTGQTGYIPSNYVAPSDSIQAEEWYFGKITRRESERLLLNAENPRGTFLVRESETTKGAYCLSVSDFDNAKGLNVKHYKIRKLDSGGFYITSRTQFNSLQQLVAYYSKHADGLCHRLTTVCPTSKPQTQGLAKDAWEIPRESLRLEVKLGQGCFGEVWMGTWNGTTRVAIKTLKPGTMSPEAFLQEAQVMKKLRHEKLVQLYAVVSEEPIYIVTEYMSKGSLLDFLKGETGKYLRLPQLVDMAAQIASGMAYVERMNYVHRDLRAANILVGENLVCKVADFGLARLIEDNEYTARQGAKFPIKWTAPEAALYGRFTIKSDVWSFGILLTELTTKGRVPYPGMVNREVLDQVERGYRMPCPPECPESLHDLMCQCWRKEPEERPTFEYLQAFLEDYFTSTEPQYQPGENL
Sequence of PLK1 (P53350 whole entry): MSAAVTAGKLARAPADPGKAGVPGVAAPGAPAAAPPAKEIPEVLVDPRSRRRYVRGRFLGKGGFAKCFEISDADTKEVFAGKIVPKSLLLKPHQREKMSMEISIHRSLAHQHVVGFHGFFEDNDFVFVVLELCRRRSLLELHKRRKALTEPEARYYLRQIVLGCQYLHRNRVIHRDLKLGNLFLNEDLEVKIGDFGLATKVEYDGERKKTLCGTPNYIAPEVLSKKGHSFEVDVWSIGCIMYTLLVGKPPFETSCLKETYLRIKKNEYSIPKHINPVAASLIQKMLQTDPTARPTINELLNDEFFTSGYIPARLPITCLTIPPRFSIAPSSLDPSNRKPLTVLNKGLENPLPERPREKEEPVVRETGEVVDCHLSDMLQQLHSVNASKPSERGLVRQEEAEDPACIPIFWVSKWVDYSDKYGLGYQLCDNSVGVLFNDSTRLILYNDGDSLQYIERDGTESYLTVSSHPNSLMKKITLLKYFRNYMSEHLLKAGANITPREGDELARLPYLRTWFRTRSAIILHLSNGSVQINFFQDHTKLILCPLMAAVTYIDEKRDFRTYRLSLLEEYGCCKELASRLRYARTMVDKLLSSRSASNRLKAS
Sequence of LCK (P06239 whole entry): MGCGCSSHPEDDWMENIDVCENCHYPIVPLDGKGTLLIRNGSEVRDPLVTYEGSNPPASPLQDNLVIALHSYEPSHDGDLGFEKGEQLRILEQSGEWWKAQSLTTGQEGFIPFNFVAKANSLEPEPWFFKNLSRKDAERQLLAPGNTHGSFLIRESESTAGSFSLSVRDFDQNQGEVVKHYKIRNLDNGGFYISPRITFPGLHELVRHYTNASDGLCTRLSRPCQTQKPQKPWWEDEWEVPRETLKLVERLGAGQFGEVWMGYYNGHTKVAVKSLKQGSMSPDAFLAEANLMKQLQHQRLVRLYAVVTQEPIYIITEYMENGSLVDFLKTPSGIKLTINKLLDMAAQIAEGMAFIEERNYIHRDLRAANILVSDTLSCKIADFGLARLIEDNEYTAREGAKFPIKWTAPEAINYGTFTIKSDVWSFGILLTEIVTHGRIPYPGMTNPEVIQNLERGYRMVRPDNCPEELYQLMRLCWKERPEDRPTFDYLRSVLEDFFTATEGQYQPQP
Sequence of NEK6 (Q9HC98 whole entry): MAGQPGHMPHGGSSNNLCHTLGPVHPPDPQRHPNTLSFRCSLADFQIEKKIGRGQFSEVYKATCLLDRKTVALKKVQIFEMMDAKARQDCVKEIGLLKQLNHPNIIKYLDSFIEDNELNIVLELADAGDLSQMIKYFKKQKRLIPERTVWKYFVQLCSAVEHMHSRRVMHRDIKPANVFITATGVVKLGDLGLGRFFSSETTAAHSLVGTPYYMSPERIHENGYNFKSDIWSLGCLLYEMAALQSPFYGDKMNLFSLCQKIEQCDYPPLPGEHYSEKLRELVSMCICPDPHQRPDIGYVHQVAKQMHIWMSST

**Q.** For `c1cc(-c2ccc3[nH]ncc3c2)ccn1` [TG693, 5-(4-pyridinyl)-1H-indazole], which inhibition at 1 µM [1] is on record?
**A.** -2%

**Q.** And the inhibition at 1 µM [2]?
**A.** 4%

**Q.** What about the inhibition at 1 µM [3] of the same compound?
**A.** 46.3%

**Q.** What about the inhibition at 1 µM [4] of the same compound?
**A.** 3.2%

**Q.** What about the inhibition at 1 µM [5] of the same compound?
**A.** 6.1%

**Q.** What about the inhibition at 1 µM [6] of the same compound?
**A.** -0.9%

**Q.** And the inhibition at 1 µM [7]?
**A.** -6.5%

**Q.** What about the inhibition at 1 µM [8] of the same compound?
**A.** 3.1%

**Q.** What about the inhibition at 1 µM [9] of the same compound?
**A.** 0.4%

**Q.** And the inhibition at 1 µM [10]?
**A.** -11.8%

**Q.** What about the inhibition at 1 µM [11] of the same compound?
**A.** -2.5%

**Q.** What about the inhibition at 1 µM [12] of the same compound?
**A.** -60.9%

**Q.** What about the inhibition at 1 µM [13] of the same compound?
**A.** -15.8%

**Q.** And the inhibition at 1 µM [14]?
**A.** 1.1%

**Q.** What about the inhibition at 1 µM [15] of the same compound?
**A.** 8.1%

**Q.** What about the inhibition at 1 µM [16] of the same compound?
**A.** 16.9%

**Q.** And the inhibition at 1 µM [17]?
**A.** -1.8%

**Q.** And the inhibition at 1 µM [18]?
**A.** -2.2%

**Q.** And the inhibition at 1 µM [19]?
**A.** 1.1%

**Q.** And the inhibition at 1 µM [20]?
**A.** -9.7%

**Q.** What about the inhibition at 1 µM [21] of the same compound?
**A.** 11.4%

**Q.** What about the inhibition at 1 µM [22] of the same compound?
**A.** -5.4%

**Q.** And the inhibition at 1 µM [23]?
**A.** 11.9%

**Q.** And the inhibition at 1 µM [24]?
**A.** 6.3%

**Q.** What about the inhibition at 1 µM [25] of the same compound?
**A.** 1.4%

**Q.** And the inhibition at 1 µM [26]?
**A.** -6%

**Q.** And the inhibition at 1 µM [27]?
**A.** -8.4%

**Q.** And the inhibition at 1 µM [28]?
**A.** -8.5%

**Q.** What about the inhibition at 1 µM [29] of the same compound?
**A.** -0.8%

**Q.** And the inhibition at 1 µM [30]?
**A.** 1.7%

**Q.** And the inhibition at 1 µM [31]?
**A.** -4.3%
